Assay results taken from patent US20250171459A1, “2-METHYL-4',5'-DIHYDROSPIRO[PIPERIDINE-4,7'-THIENO[2,3-C]PYRAN] DERIVATIVES AS INHIBITORS OF APOL1 AND METHODS OF USING SAME” (Vertex Pharmaceuticals Incorporated, priority 2022, published 2025).
pIC50: −log10 of the molar value.

target: T1, APOL1 (Homo sapiens, UniProt O14791); test: MultiTox-Fluor Multiplex Cytotoxicity Assay in tet-inducible APOL1 T-REx-HEK293 cells (cell rescue, ratio of dead to live cells); format: cell-based; details: tet-inducible transgenic APOL1 T-REx-HEK293 cell lines, 50 ng/mL tet, 24 hours; read-out: IP50 (i.e., IC50 for cell proliferation)
T1 sequence (O14791 1-398 S342G/I384M): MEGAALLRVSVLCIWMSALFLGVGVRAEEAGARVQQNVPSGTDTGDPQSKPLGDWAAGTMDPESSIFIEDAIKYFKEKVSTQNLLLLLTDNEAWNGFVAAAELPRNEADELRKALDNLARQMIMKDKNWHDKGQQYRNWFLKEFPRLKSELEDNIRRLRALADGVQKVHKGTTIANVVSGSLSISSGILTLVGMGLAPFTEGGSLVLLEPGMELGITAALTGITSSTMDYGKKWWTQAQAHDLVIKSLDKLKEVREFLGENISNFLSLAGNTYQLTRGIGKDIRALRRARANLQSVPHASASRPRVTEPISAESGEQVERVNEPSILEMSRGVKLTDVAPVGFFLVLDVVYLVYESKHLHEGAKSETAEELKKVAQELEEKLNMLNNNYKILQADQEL
Method in brief: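 T-REx-HEK293 cells with tet-inducible APOL1 were treated with compound (10 μM top, 10-point 3-fold dilution, duplicate) plus 50 ng/mL tetracycline for 24 h at 37° C, in DMEM with 2% tet-free FBS. MultiTox-Fluor protease signals gave a dead/live ratio, normalized to no tet (100% viability) and tet alone (0%).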

Row | SMILES | pIC50
1 | CCc1cc2c(s1)CCO[C@@]21CCN(CC2CN(C(=O)c3ccccc3)C2)[C@@H](C)C1 [Compound 431] | > 7.00
2 | C[C@H]1C[C@@]2(CCN1Cc1cccc(OCC(N)=O)c1)OCCc1cc(Cl)sc12 [Compound 656] | 6.30 to 7.00
3 | CCc1cc2c(s1)CCO[C@@]21CCN(C[C@@H](C)O)[C@@H](C)C1 [Compound 237] | 6.30 to 7.00
4 | CCc1cc2c(s1)CCO[C@@]21CCN(CC(F)F)[C@@H](C)C1 [Compound 294] | 6.00 to 6.30
5 | CCc1cc2c(s1)CCO[C@@]21CCN(C[C@H]2C[C@@H](NC(=O)OC(C)C)C2)[C@@H](C)C1 [Compound 376] | > 7.00
6 | CCc1cc2c(s1)CCO[C@@]21CCN(C[C@H]2C[C@@H](NC(=O)C3(c4ccc(F)cn4)CC3)C2)[C@@H](C)C1 [Compound 327] | 6.30 to 7.00
7 | CCc1cc2c(s1)CCOC21CCN(Cc2cn(CC(=O)NCCC(F)(F)F)nn2)CC1 [Compound 1096] | 6.00 to 6.30
8 | CCc1cc2c(s1)CCOC21CCN(Cc2cn[nH]c2)CC1 [Compound 1133] | 6.30 to 7.00
9 | C[C@H]1C[C@@]2(CCN1Cc1cn3c(n1)CCC3)OCCc1cc(Cl)sc12 [Compound 679] | 6.00 to 6.30
10 | CCc1cc2c(s1)CCO[C@@]21CCN(CC2CN(C(=O)C(=O)c3cnc[nH]3)C2)[C@@H](C)C1 [Compound 482] | > 7.00
11 | CCc1ncc(CN2CC[C@]3(C[C@@H]2C)OCCc2cc(Cl)sc23)cn1 [Compound 653] | 6.30 to 7.00
12 | COc1cncc(CN2CC[C@]3(C[C@@H]2C)OC[C@H](O)c2cc(Cl)sc23)c1 [Compound 806] | 6.30 to 7.00
13 | CCc1cc2c(s1)CCO[C@@]21CCN(Cc2cn(Cc3cnn(CCO)c3)nn2)[C@@H](C)C1 [Compound 60] | > 7.00
14 | C[C@H]1C[C@@]2(CCN1Cc1cn[nH]c1)OCCc1c2sc(C(F)(F)F)c1CO [Compound 873, [(2′S, 7R)-2′-methyl-1′-(1H-pyrazol-4-ylmethyl)-2-(trifluoromethyl)spiro[4,5-dihydrothieno[2,3-c]pyran-7,4′-piperidine]-3-yl]methanol] | > 7.00
15 | CCc1cc2c(s1)CCO[C@@]21CCN(Cc2ccon2)[C@@H](C)C1 [Compound 279, (2′S,4R)-2-ethyl-1′-(isoxazol-3-ylmethyl)-2′-methyl-spiro[6,7-dihydrothieno[3,2-c]pyran-4,4′-piperidine]] | > 7.00
16 | C[C@H]1C[C@@]2(CCN1Cc1cn(CCS(C)(=O)=O)nn1)OCCc1cc(CO)sc12 [Compound 1019, [(2′S, 7R)-2′-methyl-1′-[[1-(2-methylsulfonylethyl)triazol-4-yl]methyl]spiro[4,5-dihydrothieno[2,3-c]pyran-7,4′-piperidine]-2-yl]methanol] | 6.00 to 6.30
17 | C[C@H]1C[C@@]2(CCN1Cc1cnn(CC(O)C(C)(C)O)c1)OCC(O)(C(F)F)c1cc(Cl)sc12 (stereo in doubt) [Compound 829, 1-[4-[[(2′S,4R,7R)-2-chloro-4-(difluoromethyl)-4-hydroxy-2′-methyl-spiro[5H-thieno[2,3-c]pyran-7,4′-piperidine]-1′-yl]methyl]pyrazol-1-yl]-3-methyl-butane-2,3-diol] | > 7.00
18 | CCc1cc2c(s1)CCO[C@@]21CCN(Cc2cnc(N[C@@H](CO)[C@@H](C)O)nc2)[C@@H](C)C1 [Compound 229] | > 7.00
19 | C[C@H]1C[C@@]2(CCN1Cc1cnn(CC(O)C3(CO)CCC3)c1)OCCc1c2sc(C(F)(F)F)c1CO (stereo partly shown) [Compound 935] | > 7.00
20 | CCc1cc2c(s1)CCO[C@@]21CCN(Cc2cn(CCS(C)(=O)=O)nn2)[C@@H](C)C1 [Compound 11, (2′S,4R)-2-ethyl-2′-methyl-1′-[[1-(2-methylsulfonylethyl)triazol-4-yl]methyl]spiro[6,7-dihydrothieno[3,2-c]pyran-4,4′-piperidine]] | > 7.00

Row | SMILES | pIC50
21 | CCc1cc2c(s1)CCO[C@@]21CCN(Cc2cn(CC3(CO)CCOC3)nn2)[C@@H](C)C1 (stereo partly shown) [Compound 106] | 6.30 to 7.00
22 | CCc1cc2c(s1)CCO[C@@]21CCN(CC#N)[C@@H](C)C1 [Compound 292] | 6.30 to 7.00
23 | CCc1cc2c(s1)CCO[C@@]21CCN(C[C@H]2C[C@@H](NC(=O)C(C)(O)C(F)(F)F)C2)[C@@H](C)C1 (stereo partly shown) [Compound 370] | 6.30 to 7.00
24 | C[C@H]1C[C@@]2(CCN1CC(N)=O)OCCc1cc(CC(F)F)sc12 [Compound 622] | 6.00 to 6.30
25 | CCc1cc2c(s1)CCO[C@@]21CCN(C[C@H]2C[C@@H](NC(=O)c3cnc(C)nc3)C2)[C@@H](C)C1 [Compound 329] | 6.30 to 7.00
26 | CCc1cc2c(s1)CCO[C@@]21CCN(Cc2cn(Cc3ccncn3)nn2)[C@@H](C)C1 [Compound 55] | 6.30 to 7.00
27 | CCc1cc2c(s1)CCOC21CCN(Cc2cnc(NCc3cc[nH]c(=O)c3)nc2)CC1 [Compound 1075] | 6.30 to 7.00
28 | CC1CO[C@@]2(CCN(Cc3cn(CCS(C)(=O)=O)nn3)[C@@H](C)C2)c2cc(C(F)(F)F)sc21 (stereo partly drawn) [Compound 534, (2S,4R)-2,7′-dimethyl-1-((1-(2-(methylsulfonyl)ethyl)-1H-1,2,3-triazol-4-yl)methyl)-2′-(trifluoromethyl)-6′,7′-dihydrospiro[piperidine-4,4′-thieno[3,2-c]pyran]] | > 7.00
29 | CCc1cc2c(s1)CCO[C@@]21CCN(Cc2cn(CC3CCCCS3(=O)=O)nn2)[C@@H](C)C1 (stereo partly shown) [Compound 158] | > 7.00
30 | CCc1cc2c(s1)CCO[C@@]21CCN(CC2CN(C(=O)[C@@H]3CSC(=O)N3)C2)[C@@H](C)C1 [Compound 467] | > 7.00
31 | CCc1cc2c(s1)CCO[C@@]21CCN(Cc2cn([C@H]3CCN(C(=O)OC(C)(C)C)C3)nn2)[C@@H](C)C1 [Compound 17] | > 7.00
32 | CCc1cc2c(s1)CCO[C@@]21CCN(Cc2cn([C@H]3C[C@@H](OC)C3)nn2)[C@@H](C)C1 [Compound 145] | > 7.00
33 | CCc1cc2c(s1)CCO[C@@]21CCN(C[C@H]2C[C@@H](NC(=O)c3oncc3C)C2)[C@@H](C)C1 [Compound 308] | > 7.00
34 | CCc1cc2c(s1)CCO[C@@]21CCN(CC2CN(C(=O)c3cc(CO)n[nH]3)C2)[C@@H](C)C1 [Compound 479] | > 7.00
35 | COc1ncc(CN2CC[C@]3(C[C@@H]2C)OCCc2cc(Cl)sc23)cn1 [Compound 651] | > 7.00
36 | C=C(CO)n1cc(CN2CC[C@]3(C[C@@H]2C)OCCc2c3sc(C(F)(F)F)c2CO)cn1 [Compound 929, 2-[4-[[(2′S,7R)-3-(hydroxymethyl)-2′-methyl-2-(trifluoromethyl)spiro[4,5-dihydrothieno[2,3-c]pyran-7,4′-piperidine]-1′-yl]methyl]pyrazol-1-yl]prop-2-en-1-ol] | > 7.00
37 | CCc1cc2c(s1)CCOC21CCN(Cc2cn(CC(O)COC)nn2)C(C)C1 (stereo not shown) [Compound 138] | > 7.00
38 | C[C@H]1C[C@@]2(CCN1Cc1cnn(CC(O)CC3(O)COC3)c1)OCCc1c2sc(C(F)(F)F)c1CO (stereo partly shown) [Compound 945] | > 7.00
39 | C[C@H]1C[C@@]2(CCN1Cc1cn(CCS(C)(=O)=O)nn1)OCCc1c2sc(C(F)(F)F)c1C(=O)NCC1CC1 [Compound 1008] | 6.00 to 6.30
40 | CCc1cc2c(s1)CCO[C@@]21CCN(C[C@H]2C[C@@H](NC(=O)c3ccc(=O)[nH]n3)C2)[C@@H](C)C1 [Compound 349] | > 7.00
